Columns and labels:
[1] = Metabolic stability test, HLM; format: in vitro ADME; details: human, liver microsomes; for CLint scaled at 1 μM: pH 7.4, read-out: Cl (mL/min/kg) HLM; for half-life at 1 μM: pH 7.4, read-out: T1/2 (min) HLM
Procedure: (§1) • 1. Buffers: • Buffer A: 1.0 L of 0.1 M monobasic Potassium Phosphate buffer containing 1.0 mM EDTA • Buffer B: 1.0 L of 0.1 M Dibasic Potassium Phosphate buffer containing 1.0 mM EDTA • Buffer C: 0.1 M Potassium Phosphate buffer, 1.0 mM EDTA, pH 7.4 by titrating 700 mL of buffer B with buffer A while monitoring with the pH meter. • 2. Reference compounds (Ketanserin) and test compounds spiking solution: • 500 μM spiking solution: add 10 μL of 10 mM DMSO stock solution into 190 μL ACN. • 1.5 μM spiking solution in microsomes (0.75 mg/mL): add 1.5 μL of 500 μM spiking solution and 18.75 μL of 20 mg/mL liver microsomes into 479.75 μL of Buffer C on ice. • 3. Prepare NADPH stock solution (6 mM) by dissolving NADPH into buffer C. • 4. Dispense 30 μL of 1.5 μM spiking solution containing 0.75 mg/mL microsomes solution to the assay plates designated for different time points (0-, 5-, 15-, 30-, 45-min) on ice. • 5. For 0-min time point, add 135 μL of ACN containing IS to the wells of 0-min plate and then add 15 μL of NADPH stock solution (6 mM). • 6. Pre-incubate all other plates at 37° C. for 5 minutes. • 7. Add 15 μL of NADPH stock solution (6 mM) to the plates to start the reaction and timing. • 8. At 5-min, 15-min, 30-min, and 45-min, add 135 μL of ACN containing IS to the wells of corresponding plates, respectively, to stop the reaction. • 9. After quenching, shake the plates at the vibrator (IKA, MTS 2/4) for 10 min (600 rpm/min) and then centrifuge at 5594 g for 15 min (ThermoMultifuge×3R). • 10. Transfer 50 μL of the supernatant from each well into a 96-well sample plate containing 50 μL of ultra pure water (Millipore, ZMQS50F01) for LC/MS analysis.

[2] = Metabolic stability test, RLM; format: in vitro ADME; details: rat, liver microsomes; for CLint scaled at 1 μM: pH 7.4, read-out: Cl (mL/min/kg) RLM; for half-life at 1 μM: pH 7.4, read-out: T1/2 (min) RLM
Procedure: as §1

RIP2 kinase = RIP2 kinase (Homo sapiens (Human), UniProt O43353); experiment: Binding affinity assay (Kd)
Chain of RIP2 kinase (O43353 whole entry): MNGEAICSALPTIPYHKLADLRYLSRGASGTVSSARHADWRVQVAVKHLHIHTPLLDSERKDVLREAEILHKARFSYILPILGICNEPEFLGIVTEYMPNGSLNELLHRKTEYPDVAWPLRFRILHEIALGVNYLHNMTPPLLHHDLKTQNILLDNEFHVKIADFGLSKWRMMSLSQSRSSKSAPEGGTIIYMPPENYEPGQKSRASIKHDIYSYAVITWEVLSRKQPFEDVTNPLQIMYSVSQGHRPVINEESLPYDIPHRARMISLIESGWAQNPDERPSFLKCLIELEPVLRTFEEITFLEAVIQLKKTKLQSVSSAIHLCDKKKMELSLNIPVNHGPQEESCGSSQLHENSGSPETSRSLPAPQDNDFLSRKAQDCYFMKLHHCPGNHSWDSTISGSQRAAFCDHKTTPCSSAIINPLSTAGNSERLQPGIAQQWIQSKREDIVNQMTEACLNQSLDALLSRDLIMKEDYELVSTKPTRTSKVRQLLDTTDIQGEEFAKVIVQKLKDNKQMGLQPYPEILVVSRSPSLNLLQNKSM
Procedure: For most assays, kinase-tagged T7 phage strains were prepared in an E. coli host derived from the BL21 strain. E. coli were grown to log-phase and infected with T7 phage and incubated with shaking at 32° C. until lysis. The lysates were centrifuged and filtered to remove cell debris. The remaining kinases were produced in HEK-293 cells and subsequently tagged with DNA for qPCR detection. Streptavidin coated magnetic beads were treated with biotinylated small molecule ligands for 30 minutes at room temperature to generate affinity resins for kinase assays. The liganded beads were blocked with excess biotin and washed with blocking buffer (SeaBlock (Pierce), 1% BSA, 0.05% Tween 20, 1 mM DTT) to remove unbound ligand and to reduce non-specific binding. Binding reactions were assembled by combining kinases, liganded affinity beads, and test compounds in 1× binding buffer (20% SeaBlock, 0.17×PBS, 0.05% Tween 20, 6 mM DTT). Test compounds were prepared as 111× stocks in 100% DMSO. Kds were determined using an 11-point 3-fold compound dilution series with three DMSO control points. All compounds for Kd measurements are distributed by acoustic transfer (non-contact dispensing) in 100% DMSO. The compounds were then diluted directly into the assays such that the final concentration of DMSO was 0.9%. All reactions performed in polypropylene 384-well plate. Each was a final volume of 0.02 ml. The assay plates were incubated at room temperature with shaking for 1 hour and the affinity beads were washed with wash buffer (1×PBS, 0.05% Tween 20). The beads were then re-suspended in elution buffer (1×PBS, 0.05% Tween 20, 0.5 μM nonbiotinylated affinity ligand) and incubated at room temperature with shaking for 30 minutes. The kinase concentration in the eluates was measured by qPCR.
An 11-point 3-fold serial dilution of each test compound was prepared in 100% DMSO at 100× final test concentration and subsequently diluted to 1× in the assay (final DMSO concentration=1%). Most Kds were determined using a compound top concentration=30,000 nM. If the initial Kd determined was <0.5 nM (the lowest concentration tested), the measurement was repeated with a serial dilution starting at a lower top concentration.
Binding constants (Kds) were calculated with a standard dose-response curve using the Hill equation: […]
The Hill Slope was set to −1.
Curves were fitted using a non-linear least square fit with the Levenberg-Marquardt algorithm.

[3] = Metabolic stability test, DLM; format: in vitro ADME; details: dog, liver microsomes; for CLint scaled at 1 μM: pH 7.4, read-out: Cl (mL/min/kg) DLM; for half-life at 1 μM: pH 7.4, read-out: T1/2 (min) DLM
Procedure: as §1

Row | Compound | CLint scaled at 1 μM [1] [mL/min/kg] | half-life at 1 μM [1] [min] | CLint scaled at 1 μM [2] [mL/min/kg] | half-life at 1 μM [2] [min] | Kd (RIP2 kinase) [nM] | CLint scaled at 1 μM [3] [mL/min/kg] | half-life at 1 μM [3] [min]
1 | COc1cc2nccc(Nc3ccc4scnc4c3)c2cc1P(C)(C)=O [A6] | 2.97 | 586 | 25.9 | 95.7 | 3.1 | 5.21 | 664
2 | CP(C)(=O)c1cc2c(Nc3ccc4scnc4c3)ccnc2cc1OCCO [A7, (4-(benzo[d]thiazol-5-ylamino)-7-(2-hydroxyethoxy)quinolin-6-yl)dimethylphosphine oxide] | 4.13 | 421 | 17 | 146 | 5.8 | 2.58 | 1340
3 | COCCOc1cc2nccc(Nc3ccc4scnc4c3)c2cc1P(C)(C)=O [A8] | 15.9 | 109 | 25.9 | 95.7 | 2 | 13.7 | 253
4 | CC1(COc2cc3nccc(Nc4ccc5scnc5c4)c3cc2P(C)(C)=O)COC1 [A9] | 33.5 | 52 | 63.9 | 38.9 | 2.1 | 30.1 | 115

Continued, values first:

Row | CLint scaled at 1 μM [1] [mL/min/kg] | half-life at 1 μM [1] [min] | CLint scaled at 1 μM [2] [mL/min/kg] | half-life at 1 μM [2] [min] | Kd (RIP2 kinase) [nM] | CLint scaled at 1 μM [3] [mL/min/kg] | half-life at 1 μM [3] [min] | Compound
5 | 22.9 | 75.8 | 38.6 | 64.4 | 3 | 5.58 | 619 | CP(C)(=O)c1cc2c(Nc3ccc4scnc4c3)ccnc2cc1O[C@H]1CCOC1 [A14]
6 | 19.6 | 88.6 | 49.5 | 50.2 | 3 | 4.16 | 831 | CP(C)(=O)c1cc2c(Nc3ccc4scnc4c3)ccnc2cc1O[C@@H]1CCOC1 [A15]
7 | 9.98 | 174 | 16.9 | 147 | 3.8 |  |  | CP(C)(=O)c1cc2c(Nc3ccc4scnc4c3)ccnc2cc1OC1COC1 [A16]
8 |  |  |  |  | 5.2 |  |  | CP(C)(=O)c1cc2c(Nc3ccc4scnc4c3)ccnc2cc1OC(F)(F)F [A24]
